Measurements taken from PubChem BioAssay (NCI).
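Interpolation was linear, between the two tested concentrations surrounding the appropriate level; five concentrations were tested over 48 hours in 96-well plates. TGI: concentration producing complete growth inhibition.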

Legend:
Assay in all cases: inhibition of tumour cell growth, NCI panel, 48 h
SF-268 CNS = tested on: SF-268 CNS
NCI/ADR-RES ovarian = tested on: NCI/ADR-RES ovarian
HL-60(TB) leukemia = tested on: HL-60(TB) leukemia
SF-539 CNS = tested on: SF-539 CNS
EKVX NSCLC = tested on: EKVX NSCLC
IGROV1 ovarian = tested on: IGROV1 ovarian
SF-295 CNS = tested on: SF-295 CNS
SK-MEL-5 melanoma = tested on: SK-MEL-5 melanoma
NCI-H23 lung = tested on: NCI-H23 lung
NCI-H460 lung = tested on: NCI-H460 lung
HCC-2998 colon = tested on: HCC-2998 colon
UACC-62 melanoma = tested on: UACC-62 melanoma
RPMI-8226 leukemia = tested on: RPMI-8226 leukemia
UO-31 renal = tested on: UO-31 renal
MALME-3M melanoma = tested on: MALME-3M melanoma
HT29 colon = tested on: HT29 colon
T-47D breast = tested on: T-47D breast
MCF7 breast = tested on: MCF7 breast
UACC-257 melanoma = tested on: UACC-257 melanoma
SW-620 colon = tested on: SW-620 colon
RXF 393 renal = tested on: RXF 393 renal
K-562 leukemia = tested on: K-562 leukemia
786-0 renal = tested on: 786-0 renal
M14 melanoma = tested on: M14 melanoma
CCRF-CEM leukemia = tested on: CCRF-CEM leukemia
NCI-H226 lung = tested on: NCI-H226 lung
HCT-15 colon = tested on: HCT-15 colon
ACHN renal = tested on: ACHN renal
TK-10 renal = tested on: TK-10 renal
MDA-N = tested on: MDA-N
MOLT-4 leukemia = tested on: MOLT-4 leukemia
NCI-H522 lung = tested on: NCI-H522 lung
COLO 205 colon = tested on: COLO 205 colon
A549 NSCLC = tested on: A549 NSCLC
A498 renal = tested on: A498 renal
U251 CNS = tested on: U251 CNS
OVCAR-5 ovarian = tested on: OVCAR-5 ovarian
SN12C renal = tested on: SN12C renal
OVCAR-4 ovarian = tested on: OVCAR-4 ovarian
HS 578T breast = tested on: HS 578T breast
LOX IMVI melanoma = tested on: LOX IMVI melanoma
KM12 colon = tested on: KM12 colon
OVCAR-8 ovarian = tested on: OVCAR-8 ovarian
DU-145 prostate = tested on: DU-145 prostate
PC-3 prostate = tested on: PC-3 prostate
SK-OV-3 ovarian = tested on: SK-OV-3 ovarian
BT-549 breast = tested on: BT-549 breast
SK-MEL-2 melanoma = tested on: SK-MEL-2 melanoma
SNB-19 CNS = tested on: SNB-19 CNS
SK-MEL-28 melanoma = tested on: SK-MEL-28 melanoma
CAKI-1 renal = tested on: CAKI-1 renal
MDA-MB-231 breast = tested on: MDA-MB-231 breast
MDA-MB-435 = tested on: MDA-MB-435
OVCAR-3 ovarian = tested on: OVCAR-3 ovarian
HOP-92 NSCLC = tested on: HOP-92 NSCLC
SR leukemia = tested on: SR leukemia
HOP-62 NSCLC = tested on: HOP-62 NSCLC
HCT-116 colon = tested on: HCT-116 colon
SNB-75 CNS = tested on: SNB-75 CNS

COc1ccc(NC2=CC(=O)C(=O)c3ccccc32)nn1
TGI (SF-268 CNS): 6.95 µM | TGI (NCI/ADR-RES ovarian): 3.65 µM | TGI (HL-60(TB) leukemia): 0.898 µM | TGI (SF-539 CNS): 2.2 µM | TGI (EKVX NSCLC): 9.82 µM | TGI (IGROV1 ovarian): 11.1 µM | TGI (SF-295 CNS): 2.15 µM | TGI (SK-MEL-5 melanoma): 2 µM | TGI (NCI-H23 lung): 6.2 µM | TGI (NCI-H460 lung): 3.49 µM | TGI (HCC-2998 colon): 21.2 µM | TGI (UACC-62 melanoma): 3.01 µM | TGI (RPMI-8226 leukemia): 5.34 µM | TGI (UO-31 renal): 11.8 µM | TGI (MALME-3M melanoma): 1.96 µM | TGI (HT29 colon): 3.54 µM | TGI (T-47D breast): 11.9 µM | TGI (MCF7 breast): 2.14 µM | TGI (UACC-257 melanoma): 3.24 µM | TGI (SW-620 colon): 3.4 µM | TGI (RXF 393 renal): 3.78 µM | TGI (K-562 leukemia): 1.31 µM | TGI (786-0 renal): 3.76 µM | TGI (M14 melanoma): 0.668 µM | TGI (CCRF-CEM leukemia): > 100 µM | TGI (NCI-H226 lung): 5.5 µM | TGI (HCT-15 colon): 2.51 µM | TGI (ACHN renal): 5.1 µM | TGI (TK-10 renal): 9.92 µM | TGI (MDA-N): 1.16 µM | TGI (MOLT-4 leukemia): 1.76 µM | TGI (NCI-H522 lung): 2.16 µM | TGI (COLO 205 colon): 3.21 µM | TGI (A549 NSCLC): 31.2 µM | TGI (A498 renal): 3.29 µM | TGI (U251 CNS): 12.4 µM | TGI (OVCAR-5 ovarian): 3.45 µM | TGI (SN12C renal): 3.52 µM | TGI (OVCAR-4 ovarian): 2.79 µM | TGI (HS 578T breast): > 100 µM | TGI (LOX IMVI melanoma): 4.14 µM | TGI (KM12 colon): 1.62 µM | TGI (OVCAR-8 ovarian): 5.35 µM | TGI (DU-145 prostate): 3.19 µM | TGI (PC-3 prostate): 38.9 µM | TGI (SK-OV-3 ovarian): 9.41 µM | TGI (BT-549 breast): 2.05 µM | TGI (SK-MEL-2 melanoma): 4.32 µM | TGI (SNB-19 CNS): 18.1 µM | TGI (SK-MEL-28 melanoma): 2.3 µM | TGI (CAKI-1 renal): 6.24 µM | TGI (MDA-MB-231 breast): 34.8 µM | TGI (MDA-MB-435): 1.32 µM | TGI (OVCAR-3 ovarian): 5.94 µM

O=c1[nH]nc(-c2ccccc2)c2[nH]c(-c3ccccc3)cc12
TGI (SF-268 CNS): > 100 µM | TGI (NCI/ADR-RES ovarian): > 100 µM | TGI (HL-60(TB) leukemia): > 100 µM | TGI (HOP-92 NSCLC): > 100 µM | TGI (EKVX NSCLC): > 100 µM | TGI (IGROV1 ovarian): > 100 µM | TGI (SF-295 CNS): > 100 µM | TGI (NCI-H23 lung): > 100 µM | TGI (RPMI-8226 leukemia): > 100 µM | TGI (UO-31 renal): > 100 µM | TGI (MALME-3M melanoma): > 100 µM | TGI (HT29 colon): > 100 µM | TGI (T-47D breast): > 100 µM | TGI (SW-620 colon): > 100 µM | TGI (RXF 393 renal): > 100 µM | TGI (K-562 leukemia): > 100 µM | TGI (786-0 renal): > 100 µM | TGI (M14 melanoma): > 100 µM | TGI (CCRF-CEM leukemia): > 100 µM | TGI (HCT-15 colon): > 100 µM | TGI (MDA-N): > 100 µM | TGI (MOLT-4 leukemia): > 100 µM | TGI (COLO 205 colon): > 100 µM | TGI (A549 NSCLC): > 100 µM | TGI (OVCAR-5 ovarian): > 100 µM | TGI (SN12C renal): > 100 µM | TGI (OVCAR-4 ovarian): > 100 µM | TGI (HS 578T breast): > 100 µM | TGI (LOX IMVI melanoma): > 100 µM | TGI (KM12 colon): > 100 µM | TGI (OVCAR-8 ovarian): > 100 µM | TGI (DU-145 prostate): > 100 µM | TGI (SR leukemia): > 100 µM | TGI (SK-OV-3 ovarian): > 100 µM | TGI (BT-549 breast): > 100 µM | TGI (SNB-19 CNS): > 100 µM | TGI (HOP-62 NSCLC): > 100 µM | TGI (CAKI-1 renal): > 100 µM | TGI (HCT-116 colon): > 100 µM | TGI (MDA-MB-435): > 100 µM | TGI (SNB-75 CNS): > 100 µM | TGI (OVCAR-3 ovarian): > 100 µM
